The IC50 is the point on the concentration scale where inhibition reaches its midpoint. Low values mean greater potency, high ones weaker potency.

These results are taken from US12427146B2, “C-terminal SRC kinase inhibitors” (INVENTISBIO CO., LTD., priority 2018, dated 2025).

The target in one experiment is CSK protein (Homo sapiens (Human), UniProt P41240). Nature of the experiment: CSK Inhibition Assay. It counts as biochemical. In outline: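 Compounds, 11-point 1:3 dilutions in DMSO, were preincubated 30 min at RT with CSK and fluorescent peptide substrate, then the reaction was started with ATP (4 μM solution) and run 90 min at 25 °C before EDTA stop. Phospho-peptide conversion was read by mobility-shift separation (Caliper EZ Reader II) and converted to % inhibition for IC50.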
Chain of CSK protein (P41240 whole entry): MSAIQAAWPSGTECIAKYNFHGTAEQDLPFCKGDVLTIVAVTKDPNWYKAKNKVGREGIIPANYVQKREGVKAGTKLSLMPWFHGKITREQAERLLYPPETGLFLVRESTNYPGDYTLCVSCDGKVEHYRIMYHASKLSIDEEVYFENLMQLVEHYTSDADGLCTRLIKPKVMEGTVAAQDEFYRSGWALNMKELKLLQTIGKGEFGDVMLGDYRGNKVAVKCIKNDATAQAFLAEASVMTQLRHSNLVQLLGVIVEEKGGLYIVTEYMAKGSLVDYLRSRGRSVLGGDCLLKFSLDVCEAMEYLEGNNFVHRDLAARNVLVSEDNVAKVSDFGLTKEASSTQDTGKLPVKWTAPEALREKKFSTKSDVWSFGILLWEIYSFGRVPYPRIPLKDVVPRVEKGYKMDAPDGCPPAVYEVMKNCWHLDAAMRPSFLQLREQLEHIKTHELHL

A further experiment has as its target LCK protein (Homo sapiens (Human), UniProt P06239). Nature of the experiment: LCK Inhibition Assay. It counts as biochemical. Put shortly:
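Recombinant LCK (0.50 nM) preincubated 30 min at RT with compound and FLPeptide4 (2 μM) in 50 mM HEPES pH 7.5, 10 mM MgCl2, Brij-35, DTT, BSA; reaction started with ATP (400 μM solution added), run 90 min at 25 °C, EDTA-stopped. Phospho/non-phospho peptide separated by mobility shift; IC50 from % inhibition of conversion, 11-point 1:3 series.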

Chain of LCK protein (P06239 whole entry): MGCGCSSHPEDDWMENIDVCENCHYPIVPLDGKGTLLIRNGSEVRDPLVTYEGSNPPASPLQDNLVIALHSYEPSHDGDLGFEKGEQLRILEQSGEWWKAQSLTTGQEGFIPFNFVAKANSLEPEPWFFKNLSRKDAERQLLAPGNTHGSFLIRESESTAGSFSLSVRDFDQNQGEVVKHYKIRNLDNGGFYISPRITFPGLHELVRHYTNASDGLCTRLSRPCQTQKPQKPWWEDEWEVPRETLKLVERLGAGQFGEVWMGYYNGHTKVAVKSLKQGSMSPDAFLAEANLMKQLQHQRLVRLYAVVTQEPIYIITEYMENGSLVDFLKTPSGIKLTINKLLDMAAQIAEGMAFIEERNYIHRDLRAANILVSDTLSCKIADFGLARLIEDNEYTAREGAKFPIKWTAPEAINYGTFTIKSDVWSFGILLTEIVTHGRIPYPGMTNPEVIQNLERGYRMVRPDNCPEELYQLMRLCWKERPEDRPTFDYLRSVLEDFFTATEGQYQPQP

With `CNc1nccc(-c2sc(N3CC(F)(F)C3)nc2-c2cccc(NS(=O)(=O)c3c(F)cccc3F)c2F)n1` [Compound 168], the IC50 on CSK protein was 12.7 nM; against LCK protein it was 100 to 1000 nM.
As for `CNc1nccc(-c2sc(-c3ccccc3)nc2-c2cccc(NS(=O)(=O)c3c(F)cccc3F)c2F)n1` [Compound 46], the concentration for half-maximal inhibition (IC50) against CSK protein was 27.3 nM; against LCK protein, greater than 1000 nM.
As to `Cc1ccc(F)c(S(=O)(=O)Nc2cccc(-c3nc(-c4ccc(F)cn4)sc3-c3ccnc(N)n3)c2F)c1F` [Compound 54], the IC50 was 92.8 nM against CSK protein and greater than 1000 nM against LCK protein.
Consider `COc1ccc(Nc2nccc(-c3sc(-c4ccc(F)cn4)nc3-c3cccc(NS(=O)(=O)c4c(F)cccc4F)c3F)n2)cn1` [Compound 32], for which the half-maximal inhibitory concentration (IC50) at CSK protein is 2.9 nM; at LCK protein it was 100 to 1000 nM.
Taken in the same sequence, the figures for `Nc1nccc(-c2sc(N3CCCC3=O)nc2-c2cccc(NS(=O)(=O)c3c(F)cccc3F)c2F)n1` [compound 112] were 30.3 nM and greater than 1000 nM.
`Cc1ccc(-c2nc(-c3cccc(NS(=O)(=O)c4c(F)cccc4F)c3F)c(-c3ccnc(N)n3)s2)nc1` [Compound 43]: the concentration for half-maximal inhibition (IC50) against CSK protein was 37.6 nM; against LCK protein it was 100 to 1000 nM.
For the molecule `CNc1nccc(-c2sc(N3CCCCC3)nc2-c2cccc(NS(=O)(=O)c3c(Cl)cccc3Cl)c2F)n1` [Compound 166], the results for the IC50 against CSK protein and against LCK protein were 13.5 nM and 100 to 1000 nM, respectively.
On to `O=S(=O)(Nc1cccc(-c2nc(-c3ccccc3)sc2-c2ccnc(Nc3cncnc3)n2)c1F)c1c(F)cccc1F` [compound 38], for which the half-maximal inhibitory concentration (IC50) against CSK protein is 14.9 nM; against LCK protein it was 100 to 1000 nM.
For the molecule `NC(=O)c1ccn2c(-c3ccnc(N)n3)c(-c3cccc(NS(=O)(=O)c4c(F)cccc4F)c3F)nc2c1` [Compound 94], the half-inhibitory concentration (IC50) on CSK protein was 98.6 nM; on LCK protein, greater than 1000 nM.
